Reference: ChEMBL document CHEMBL5500426, “Directly Suppressing MYC Function with Novel Alkynyl-Substituted Phenylpyrazole Derivatives that Induce Protein Degradation and Perturb MYC/MAX Interaction” (J Med Chem, 2024)
Activity calls are given as the source filed them. No cut-off for these calls is given here.

Tests used:
PC-3 = test: Antiproliferative activity against human PC-3 cells assessed as inhibition of cell growth incubated for 72 hrs by MTT assay; type: functional, cell-based; details: PC-3, 72 h
[1] = Cytotoxicity against human HUVEC cells assessed as inhibition of cell growth incubated for 72 hrs by MTT assay; type: toxicity, cell-based
[2] = Cytotoxicity against human GES1 cells assessed as inhibition of cell growth incubated for 72 hrs by MTT assay; type: toxicity, cell-based
MDA-MB-231 = test: Antiproliferative activity against human MDA-MB-231 cells assessed as inhibition of cell growth incubated for 72 hrs by MTT assay; type: functional, cell-based; details: MDA-MB-231, 72 h
MDA-MB-468 = test: Antiproliferative activity against human MDA-MB-468 cells assessed as inhibition of cell growth incubated for 72 hrs by MTT assay; type: functional, cell-based; details: MDA-MB-468, 72 h
SK-N-BE(2) = test: Antiproliferative activity against human SK-N-BE(2) cells assessed as inhibition of cell growth incubated for 72 hrs by MTT assay; type: functional, cell-based; details: SKNBE2, 72 h
A549 = test: Antiproliferative activity against human A549 cells assessed as inhibition of cell growth incubated for 72 hrs by MTT assay; type: functional, cell-based; details: A549, 72 h
HCT-116 = test: Antiproliferative activity against human HCT-116 cells assessed as inhibition of cell growth incubated for 72 hrs by MTT assay; type: functional, cell-based; details: HCT-116, 72 h
SGC-7901 = test: Antiproliferative activity against human SGC-7901 cells assessed as inhibition of cell growth incubated for 72 hrs by MTT assay; type: functional, cell-based; details: SGC-7901, 72 h
SK-OV-3 = test: Antiproliferative activity against human SK-OV-3 cells assessed as inhibition of cell growth incubated for 72 hrs by MTT assay; type: functional, cell-based; details: SK-OV-3, 72 h
HepG2 = test: Antiproliferative activity against human HepG2 cells assessed as inhibition of cell growth incubated for 72 hrs by MTT assay; type: functional, cell-based; details: HepG2, 72 h
HL-60 = test: Antiproliferative activity against human HL-60 cells assessed as inhibition of cell growth incubated for 72 hrs by MTT assay; type: functional, cell-based; details: HL-60, 72 h
MV4-11 = test: Antiproliferative activity against human MV4-11 cells assessed as inhibition of cell growth incubated for 72 hrs by MTT assay; type: functional, cell-based; details: MV4-11, 72 h
[3] = molecular target: Myc proto-oncogene protein (Homo sapiens) (UniProt P01106); test: Inhibition of MYC in human PC-3 cells assessed as downregulation of MYC expression incubated for 24 hrs by Western blotting analysis; type: cell-based
[4] = molecular target: Myc proto-oncogene protein (Homo sapiens) (UniProt P01106); test: Inhibition of MYC in human PC-3 cells assessed as downregulation of MYC expression at 1 uM incubated for 24 hrs by Western blotting analysis relative to control; type: cell-based
[5] = molecular target: c-Myc/c-Max (Homo sapiens) (UniProt P01106+P61244); test: Inhibition of MYC/MAX protein-protein interaction in human PC-3 cells at 10 uM incubated for 1 hr by Co-immunoprecipitation based immunoblotting analysis; type: cell-based
Myc-CaP = test: Antiproliferative activity against mouse Myc-CaP cells assessed as inhibition of cell growth incubated for 72 hrs by MTT assay; type: functional, cell-based

Chain of Myc proto-oncogene protein (Homo sapiens) (P01106 whole entry): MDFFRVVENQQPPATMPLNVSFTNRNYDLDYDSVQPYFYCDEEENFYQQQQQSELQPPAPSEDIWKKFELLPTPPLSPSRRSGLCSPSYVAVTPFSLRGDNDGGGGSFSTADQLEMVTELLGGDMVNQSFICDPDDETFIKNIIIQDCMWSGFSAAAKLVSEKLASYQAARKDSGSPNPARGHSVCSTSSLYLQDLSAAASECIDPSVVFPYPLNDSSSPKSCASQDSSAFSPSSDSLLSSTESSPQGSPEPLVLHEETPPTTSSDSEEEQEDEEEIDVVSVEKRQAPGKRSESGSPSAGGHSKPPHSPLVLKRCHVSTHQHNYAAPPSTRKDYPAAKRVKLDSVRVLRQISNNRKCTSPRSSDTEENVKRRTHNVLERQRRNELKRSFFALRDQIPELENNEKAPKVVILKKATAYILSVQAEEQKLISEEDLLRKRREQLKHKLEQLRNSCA
Chain of c-Myc/c-Max (Homo sapiens) (P01106 whole entry): as above
Chain of c-Myc/c-Max (Homo sapiens) (P61244 2-160 partner limits assumed): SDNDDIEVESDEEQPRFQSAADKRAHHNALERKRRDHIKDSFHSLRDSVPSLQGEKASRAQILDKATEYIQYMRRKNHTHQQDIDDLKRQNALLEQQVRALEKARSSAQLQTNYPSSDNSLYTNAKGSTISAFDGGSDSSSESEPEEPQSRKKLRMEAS

CN1CCN(CC#Cc2c(OCc3ccc(Cl)cc3)ccc(-c3cc(C(F)(F)F)n[nH]3)c2O)CC1
IC50 (PC-3): 6.89 µM

Oc1c(-c2cc(C(F)(F)F)n[nH]2)ccc(OCc2ccc(Cl)cc2)c1C#CCCCN1CCCCC1
IC50 (PC-3): 4.42 µM

CC(C)(O)CCC#Cc1ccc(-c2cc(C(F)(F)F)n[nH]2)c(O)c1-c1ccc(Cl)c(C(F)(F)F)c1
IC50 (PC-3): 2.36 µM

CN1CCN(CCC#Cc2c(OCc3ccc(Cl)cc3)ccc(-c3cc(C(F)(F)F)n[nH]3)c2O)CC1
IC50 (PC-3): 15.3 µM

Oc1c(-c2cc(C(F)(F)F)n[nH]2)ccc(C#CCN2CCOCC2)c1-c1ccc(Cl)c(C(F)(F)F)c1
IC50 (PC-3): 2.02 µM

CN1CCN(CC#Cc2ccc(-c3cc(C(F)(F)F)nn3C)c(O)c2-c2ccc(Cl)c(C(F)(F)F)c2)CC1
IC50 (PC-3): 20.2 µM

Oc1c(-c2cc(C(F)(F)F)n[nH]2)ccc(OCc2ccc(Cl)cc2)c1C#CCN1CCC(O)CC1
IC50 (PC-3): 33.4 µM

Oc1c(-c2cc(C(F)(F)F)n[nH]2)ccc(OCc2ccc(Cl)cc2)c1C#CCCN1CCOCC1
IC50 (PC-3): 8.51 µM

Oc1c(-c2cc(C(F)(F)F)n[nH]2)ccc(OCc2ccc(Cl)cc2)c1C#CCCN1CCC(O)CC1
IC50 (PC-3): 6.07 µM

Oc1c(-c2cc(C(F)(F)F)n[nH]2)ccc(C#CCCN2CCN(C3COC3)CC2)c1-c1ccc(Cl)c(C(F)(F)F)c1
IC50 (PC-3): 1.89 µM

Cn1nc(C(F)(F)F)cc1-c1ccc(C#CCCCO)c(-c2ccc(Cl)c(C(F)(F)F)c2)c1O
IC50 (PC-3): 65.5 µM

CN(C)CC#Cc1c(OCc2ccc(Cl)cc2)ccc(-c2cc(C(F)(F)F)n[nH]2)c1O
IC50 (PC-3): > 100 µM

CN1CCN(CC#Cc2c(OCc3ccc(Cl)cc3)ccc(-c3cc(C(F)(F)F)nn3C)c2O)CC1
IC50 (PC-3): 16.6 µM

Oc1c(-c2cc(C(F)(F)F)n[nH]2)ccc(OCc2ccc(Cl)cc2)c1C#CCN1CCCC1
IC50 (PC-3): > 100 µM

Oc1c(-c2cc(C(F)(F)F)n[nH]2)ccc(OCc2ccc(Cl)cc2)c1C#CCN1CC2(COC2)C1
IC50 (PC-3): 23.6 µM

Cn1nc(C(F)(F)F)cc1-c1ccc(OCc2ccc(Cl)cc2)c(-c2ccc(Cl)c(C(F)(F)F)c2)c1O
IC50 (PC-3): 6.62 µM
IC50 at 72 h [1]: > 100 µM
IC50 at 72 h [2]: > 100 µM
IC50 (MDA-MB-231): 5.84 µM
IC50 (MDA-MB-468): 7.08 µM
IC50 (SK-N-BE(2)): 1.74 µM
IC50 (A549): 4.31 µM
IC50 (HCT-116): 1.37 µM
IC50 (SGC-7901): 4.37 µM
IC50 (SK-OV-3): 1.74 µM
IC50 (HepG2): 1.57 µM
IC50 (HL-60): 3.78 µM
IC50 (MV4-11): 1.53 µM
inhibition [3]: Dose-Dependent Effect
inhibition [4]: 31%
inhibition [5]: Active
IC50 (Myc-CaP): 4.16 µM

Oc1c(-c2cc(C(F)(F)F)n[nH]2)ccc(OCc2ccc(Cl)cc2)c1C#CCN1CCN(C2COC2)CC1
IC50 (PC-3): 8.24 µM

OCCCC#Cc1c(OCc2ccc(Cl)cc2)ccc(-c2cc(C(F)(F)F)n[nH]2)c1O
IC50 (PC-3): 12.9 µM

Cn1nc(C(F)(F)F)cc1-c1ccc(C#CCN2CCOCC2)c(-c2ccc(Cl)c(C(F)(F)F)c2)c1O
IC50 (PC-3): 58.5 µM

CN1CCN(CC#Cc2ccc(-c3cc(C(F)(F)F)n[nH]3)c(O)c2-c2ccc(Cl)c(C(F)(F)F)c2)CC1
IC50 (PC-3): 4.13 µM

Oc1c(-c2cc(C(F)(F)F)n[nH]2)ccc(OCc2ccc(Cl)cc2)c1C#CCCN1CCCCC1
IC50 (PC-3): 3.65 µM

Cn1nc(C(F)(F)F)cc1-c1ccc(OCc2ccc(Cl)cc2)c(C#CCCCO)c1O
IC50 (PC-3): > 100 µM

Cn1nc(C(F)(F)F)cc1-c1ccc(C#CCCC(C)(C)O)c(-c2ccc(Cl)c(C(F)(F)F)c2)c1O
IC50 (PC-3): 30.1 µM

CN1CCN(CCC#Cc2ccc(-c3cc(C(F)(F)F)n[nH]3)c(O)c2-c2ccc(Cl)c(C(F)(F)F)c2)CC1
IC50 (PC-3): 3.07 µM

CN1CCN(CCCC#Cc2c(OCc3ccc(Cl)cc3)ccc(-c3cc(C(F)(F)F)n[nH]3)c2O)CC1
IC50 (PC-3): 8.43 µM

Oc1c(-c2cc(C(F)(F)F)n[nH]2)ccc(OCc2ccc(Cl)cc2)c1C#CCN1CCOCC1
IC50 (PC-3): 73.2 µM

Oc1c(-c2cc(C(F)(F)F)n[nH]2)ccc(C#CCCN2CC3(COC3)C2)c1-c1ccc(Cl)c(C(F)(F)F)c1
IC50 (PC-3): 2.8 µM

Oc1c(-c2cc(C(F)(F)F)n[nH]2)ccc(OCc2ccc(Cl)cc2)c1C#CCCN1CC2(COC2)C1
IC50 (PC-3): 4.88 µM

OCCC#Cc1c(OCc2ccc(Cl)cc2)ccc(-c2cc(C(F)(F)F)n[nH]2)c1O
IC50 (PC-3): 31 µM

Oc1c(-c2cc(C(F)(F)F)n[nH]2)ccc(C#CCCN2CCCCC2)c1-c1ccc(Cl)c(C(F)(F)F)c1
IC50 (PC-3): 3.38 µM

CC(C)(O)CCC#Cc1c(OCc2ccc(Cl)cc2)ccc(-c2cc(C(F)(F)F)n[nH]2)c1O
IC50 (PC-3): 6.7 µM

Oc1c(-c2cc(C(F)(F)F)n[nH]2)ccc(OCc2ccc(Cl)cc2)c1C#CCN1CCC(N2CCOCC2)CC1
IC50 (PC-3): > 100 µM

Oc1c(-c2cc(C(F)(F)F)n[nH]2)ccc(OCc2ccc(Cl)cc2)c1C#CCN1CCCCC1
IC50 (PC-3): 44 µM

Cn1nc(C(F)(F)F)cc1-c1ccc(OCc2ccc(Cl)cc2)c(C#CCN2CCOCC2)c1O
IC50 (PC-3): > 100 µM

Oc1c(-c2cc(C(F)(F)F)n[nH]2)ccc(OCc2ccc(Cl)cc2)c1C#CCCCN1CCOCC1
IC50 (PC-3): 9.89 µM
